Target: hFXR (Homo sapiens (Human), UniProt Q96RI1)
Assay: In Vitro FXR Assay (TK)
Type: cell-based
Details: CV-1 cells transfected with hFXR, hRXR, TK-ECRE-luc and pCMX-YFP; incubated 18 hrs; luminescence; maximum efficacy <25% of the Fexarmine control classified as '+'
Description: Example B-1: In Vitro FXR Assay (TK)
CV-1 cells were seeded at a density of 2,000,000 cells in a T175 flask with DMEM+10% charcoal double-stripped FBS and incubated at 37° C. in 5% CO2 for 18 h (O/N).
After 18 h of incubation, the medium in the T175 flask was changed with fresh DMEM+10% charcoal super-stripped serum. In a polypropylene tube, 2500 μL OptiMEM (Life Technologies, Cat #31985-062) was combined with expression plasmids for hFXR, hRXR, TK-ECRE-luc and pCMX-YFP. The tube was then briefly vortexed and incubated at room temperature for 5 minutes. Transfection reagent (X-tremeGENE HP from Roche, Cat #06 366 236 001) was added to the OptiMEM/plasmid mixture vortexed and incubated at room temperature for 20 minutes. Following incubation, the transfection reagent/DNA mixture complex was added to cells in the T175 flask and the cells were incubated at 37° C. in 5% CO2 for 18 h (O/N).
Compounds were serially diluted in DMSO and added to transfected CV-1 cells. The cells were then incubated for 18 hrs. The next day cells were lysed and examined for luminescence.

hFXR, sequence (Q96RI1 whole entry): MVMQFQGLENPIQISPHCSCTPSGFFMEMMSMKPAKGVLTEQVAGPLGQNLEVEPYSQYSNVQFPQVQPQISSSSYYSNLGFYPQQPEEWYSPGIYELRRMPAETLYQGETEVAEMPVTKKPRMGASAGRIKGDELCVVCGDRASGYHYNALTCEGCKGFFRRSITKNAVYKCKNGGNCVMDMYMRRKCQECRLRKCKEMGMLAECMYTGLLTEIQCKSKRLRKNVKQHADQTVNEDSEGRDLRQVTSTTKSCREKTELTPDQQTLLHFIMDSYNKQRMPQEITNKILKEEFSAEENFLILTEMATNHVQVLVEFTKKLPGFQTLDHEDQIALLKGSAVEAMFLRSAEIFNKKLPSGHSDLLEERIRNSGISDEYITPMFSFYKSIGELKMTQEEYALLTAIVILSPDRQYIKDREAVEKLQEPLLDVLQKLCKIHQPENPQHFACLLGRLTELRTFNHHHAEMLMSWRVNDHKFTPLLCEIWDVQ
hFXR, sequence (P19793 whole entry partner): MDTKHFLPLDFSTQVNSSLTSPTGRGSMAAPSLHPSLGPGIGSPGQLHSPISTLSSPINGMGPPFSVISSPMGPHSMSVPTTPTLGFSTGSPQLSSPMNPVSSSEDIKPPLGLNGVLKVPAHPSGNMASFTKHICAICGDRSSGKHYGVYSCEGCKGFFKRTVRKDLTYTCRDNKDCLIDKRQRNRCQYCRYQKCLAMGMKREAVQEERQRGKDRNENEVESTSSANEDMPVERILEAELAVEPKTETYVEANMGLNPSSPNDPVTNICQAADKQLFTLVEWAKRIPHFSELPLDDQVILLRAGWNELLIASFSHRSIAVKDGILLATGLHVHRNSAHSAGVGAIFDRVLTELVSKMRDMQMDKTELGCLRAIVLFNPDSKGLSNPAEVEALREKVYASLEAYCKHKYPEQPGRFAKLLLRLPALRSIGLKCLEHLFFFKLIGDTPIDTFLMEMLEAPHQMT

| EC50 [nM] | SMILES |
| --- | --- |
| 250 to 1000 | COc1ccc([C@H]2CC[C@H](CN(c3cc(-c4cnn(C(C)C)c4)ccn3)C(=O)[C@H]3CC[C@H](O)CC3)CC2)nc1C#N [Compound 5.20, trans-N-((trans-4-(6-Cyano-5-methoxypyridin-2-yl)cyclohexyl)methyl)-4-hydroxy-N-(4-(1-isopropyl-1H-pyrazol-4-yl)pyridin-2-yl)cyclohexanecarboxamide] |
| ≤ 250 | COc1ccc([C@H]2CC[C@H](CN(c3cccc(-c4cnn(C(C)C)c4)c3)C(=O)[C@H]3CC[C@H](O)CC3)CC2)nc1C#N [Compound 5.23, trans-N-((trans-4-(6-Cyano-5-methoxypyridin-2-yl)cyclohexyl)methyl)-4-hydroxy-N-(3-(1-isopropyl-1H-pyrazol-4-yl)phenyl)cyclohexanecarboxamide] |
| ≤ 250 | CN(C)c1ccc(C23CCC(CN(c4cccc(-c5cnn(C6CC6)c5)c4)C(=O)[C@H]4CC[C@H](O)CC4)(CC2)CC3)cn1 [Compound 6.01, trans-N-(3-(1-Cyclopropyl-1H-pyrazol-4-yl)phenyl)-N-((4-(6-(dimethylamino)pyridin-3-yl)bicyclo[2.2.2]octan-1-yl)methyl)-4-hydroxycyclohexanecarboxamide] |
| ≤ 250 | CCCn1cc(-c2cccc(N(C[C@H]3CC[C@H](c4ccc(OC)c(C)c4)CC3)C(=O)[C@H]3CC[C@H](O)CC3)c2)cn1 [Compound 3.04, trans-4-Hydroxy-N-((trans-4-(4-methoxy-3-methylphenyl)cyclohexyl)methyl)-N-(3-(1-propyl-1H-pyrazol-4-yl)phenyl)cyclohexanecarboxamide] |
| ≤ 250 | COc1ccc([C@H]2CC[C@H](CN(c3cccc(C#Cc4ccn(C)n4)c3)C(=O)[C@H]3CC[C@H](O)CC3)CC2)cc1C [Compound 4.02, trans-4-Hydroxy-N-((trans-4-(4-methoxy-3-methylphenyl)cyclohexyl)methyl)-N-(3-((1-methyl-1H-pyrazol-3-yl)ethynyl)phenyl)cyclohexanecarboxamide] |
| ≤ 250 | CN(C)c1ccc([C@H]2CC[C@H](CN(c3cccc(-c4cnn(C5CC5)c4)c3)C(=O)[C@H]3CC[C@H](O)CC3)CC2)cn1 [Compound 5.02, trans-N-(3-(1-Cyclopropyl-1H-pyrazol-4-yl)phenyl)-N-((trans-4-(6-(dimethylamino)pyridin-3-yl)cyclohexyl)methyl)-4-hydroxycyclohexanecarboxamide] |
| ≤ 250 | COc1ccc([C@H]2CC[C@H](CN(c3cccc(-c4cnn(C5CC5)c4)c3)C(=O)[C@H]3CC[C@H](O)CC3)CC2)nc1C#N [Compound 5.05, trans-N-((trans-4-(6-Cyano-5-methoxypyridin-2-yl)cyclohexyl)methyl)-N-(3-(1-cyclopropyl-1H-pyrazol-4-yl)phenyl)-4-hydroxycyclohexanecarboxamide] |
| ≤ 250 | COc1ccc([C@H]2CC[C@H](CN(c3cccc(C#Cc4cc[nH]n4)c3)C(=O)[C@H]3CC[C@H](O)CC3)CC2)cc1C [Compound 4.03, trans-N-(3-((1H-Pyrazol-3-yl)ethynyl)phenyl)-4-hydroxy-N-((trans-4-(4-methoxy-3-methylphenyl)cyclohexyl)methyl)cyclohexanecarboxamide] |
| ≤ 250 | COc1ccc([C@H]2CC[C@H](CN(c3cccc(-c4cnn(C5COC5)c4)c3)C(=O)[C@H]3CC[C@H](O)CC3)CC2)cc1C [Compound 3.09, trans-4-Hydroxy-N-((trans-4-(4-methoxy-3-methylphenyl)cyclohexyl)methyl)-N-(3-(1-(oxetan-3-yl)-1H-pyrazol-4-yl)phenyl)cyclohexanecarboxamide] |
| ≤ 250 | COc1ccc([C@H]2CC[C@H](CN(c3cccc(-c4cnn(C(C)C)c4)c3)C(=O)[C@H]3CC[C@H](O)CC3)CC2)nc1C [Compound 5.07, trans-4-Hydroxy-N-(3-(1-isopropyl-1H-pyrazol-4-yl)phenyl)-N-((trans-4-(5-methoxy-6-methylpyridin-2-yl)cyclohexyl)methyl)cyclohexanecarboxamide] |
| ≤ 250 | COc1ccc(C23CCC(CN(c4cc(-c5cnn(C6CC6)c5)ccn4)C(=O)[C@H]4CC[C@H](O)CC4)(CC2)CC3)cc1C [Compound 2.08, trans-N-(4-(1-Cyclopropyl-1H-pyrazol-4-yl)pyridin-2-yl)-4-hydroxy-N-((4-(4-methoxy-3-methylphenyl)bicyclo[2.2.2]octan-1-yl)methyl)cyclohexanecarboxamide] |
| ≤ 250 | CCC(C)n1cc(-c2cccc(N(C[C@H]3CC[C@H](c4ccc(OC)c(C)c4)CC3)C(=O)[C@H]3CC[C@H](O)CC3)c2)cn1 (stereo partly drawn) [Compound 3.13, trans-N-(3-(1-(sec-Butyl)-1H-pyrazol-4-yl)phenyl)-4-hydroxy-N-((trans-4-(4-methoxy-3-methylphenyl)cyclohexyl)methyl)cyclohexanecarboxamide] |
| 250 to 1000 | COc1ccc([C@H]2CC[C@H](CN(c3cccc(-n4cc(C)cn4)c3)C(=O)[C@H]3CC[C@H](O)CC3)CC2)cc1C [Compound 1, trans-4-Hydroxy-N-((trans-4-(4-methoxy-3-methylphenyl)cyclohexyl)methyl)-N-(3-(4-methyl-1H-pyrazol-1-yl)phenyl)cyclohexanecarboxamide] |
| 250 to 1000 | COc1cnc([C@H]2CC[C@H](CN(c3cccc(-c4cnn(C5CC5)c4)c3)C(=O)[C@H]3CC[C@H](O)CC3)CC2)cc1C [Compound 5.18, trans-N-(3-(1-Cyclopropyl-1H-pyrazol-4-yl)phenyl)-4-hydroxy-N-((trans-4-(5-methoxy-4-methylpyridin-2-yl)cyclohexyl)methyl)cyclohexanecarboxamide] |
| ≥ 1000 | COc1ccc([C@H]2CC[C@H](CN(c3cccc(-c4cnn(CCN(C)C)c4)c3)C(=O)[C@H]3CC[C@H](O)CC3)CC2)cc1C [Compound 3.06, trans-N-(3-(1-(2-(Dimethylamino)ethyl)-1H-pyrazol-4-yl)phenyl)-4-hydroxy-N-((trans-4-(4-methoxy-3-methylphenyl)cyclohexyl)methyl)cyclohexanecarboxamide] |
| ≤ 250 | COc1ccc([C@H]2CC[C@H](CN(c3cccc(-c4cnn(CC(F)(F)F)c4)c3)C(=O)[C@H]3CC[C@H](O)CC3)CC2)cc1C [Compound 3.07, trans-4-Hydroxy-N-((trans-4-(4-methoxy-3-methylphenyl)cyclohexyl)methyl)-N-(3-(1-(2,2,2-trifluoroethyl)-1H-pyrazol-4-yl)phenyl)cyclohexanecarboxamide] |
| ≤ 250 | COc1ccc(C23CCC(CN(c4cccc(-c5cnn(C6CC6)c5)c4)C(=O)[C@H]4CC[C@H](O)CC4)(CC2)CC3)cc1C [Compound 6, trans-N-(3-(1-Cyclopropyl-1H-pyrazol-4-yl)phenyl)-4-hydroxy-N-((4-(4-methoxy-3-methylphenyl)bicyclo[2.2.2]octan-1-yl)methyl)cyclohexanecarboxamide] |
| ≤ 250 | COc1ccc([C@H]2CC[C@H](CN(c3cc(-c4cnn(C(C)C)c4)ccn3)C(=O)[C@H]3CC[C@H](O)CC3)CC2)nc1C [Compound 5.19, trans-4-Hydroxy-N-(4-(1-isopropyl-1H-pyrazol-4-yl)pyridin-2-yl)-N-((trans-4-(5-methoxy-6-methylpyridin-2-yl)cyclohexyl)methyl)cyclohexanecarboxamide] |
| ≥ 1000 | COc1ccc([C@H]2CC[C@H](CN(c3cccc(-c4cnn(CCO)c4)c3)C(=O)[C@H]3CC[C@H](O)CC3)CC2)cc1C [Compound 3.05, trans-4-Hydroxy-N-(3-(1-(2-hydroxyethyl)-1H-pyrazol-4-yl)phenyl)-N-((trans-4-(4-methoxy-3-methylphenyl)cyclohexyl)methyl)cyclohexanecarboxamide] |
| 250 to 1000 | CCn1cc([C@H]2CC[C@H](CN(c3cccc(-c4cnn(C5CC5)c4)c3)C(=O)[C@H]3CC[C@H](O)CC3)CC2)cn1 [Compound 5.16, trans-N-(3-(1-Cyclopropyl-1H-pyrazol-4-yl)phenyl)-N-((trans-4-(1-ethyl-1H-pyrazol-4-yl)cyclohexyl)methyl)-4-hydroxycyclohexanecarboxamide] |
| ≤ 250 | COc1ncc([C@H]2CC[C@H](CN(c3cccc(-c4cnn(C5CC5)c4)c3)C(=O)[C@H]3CC[C@H](O)CC3)CC2)cc1C [Compound 5.12, trans-N-(3-(1-Cyclopropyl-1H-pyrazol-4-yl)phenyl)-4-hydroxy-N-((trans-4-(6-methoxy-5-methylpyridin-3-yl)cyclohexyl)methyl)cyclohexanecarboxamide] |
| 250 to 1000 | COc1ccc([C@H]2CC[C@H](CN(c3cccc(-n4ccc(C)n4)c3)C(=O)[C@H]3CC[C@H](O)CC3)CC2)cc1C [Compound 5.01, trans-4-Hydroxy-N-((trans-4-(4-methoxy-3-methylphenyl)cyclohexyl)methyl)-N-(3-(3-methyl-1H-pyrazol-1-yl)phenyl)cyclohexanecarboxamide] |
| ≤ 250 | COc1ncc([C@H]2CC[C@H](CN(c3cccc(-c4cnn(C5CC5)c4)c3)C(=O)[C@H]3CC[C@H](O)CC3)CC2)cc1Cl [Compound 5.10, trans-N-((trans-4-(5-chloro-6-methoxypyridin-3-yl)cyclohexyl)methyl)-N-(3-(1-cyclopropyl-1H-pyrazol-4-yl)phenyl)-4-hydroxycyclohexanecarboxamide] |
| ≤ 250 | COc1ccc([C@H]2CC[C@H](CN(c3cc(-c4cnn(C(C)C)c4)ccn3)C(=O)[C@H]3CC[C@H](O)CC3)CC2)cc1C [Compound 5.11, trans-4-Hydroxy-N-(4-(1-isopropyl-1H-pyrazol-4-yl)pyridin-2-yl)-N-((trans-4-(4-methoxy-3-methylphenyl)cyclohexyl)methyl)cyclohexanecarboxamide] |

Source: patent US10961198B2, “Farnesoid X receptor agonists and uses thereof” (Metacrine, Inc., priority 2017, dated 2021)
